In brackets after ≈: the same amount, converted by molar mass.
Legend:
Escherichia coli [1] = experiment: Activity at Escherichia coli beta-lactamase SHV-84
Escherichia coli [2] = experiment: Ratio of Kcat to Km in Escherichia coli beta-lactamase SHV-84
Escherichia coli [3] = experiment: Antimicrobial activity against Escherichia coli DH5alpha; assay type: functional
Escherichia coli [4] = experiment: Antimicrobial activity against Escherichia coli DH5alpha expressing SHV-1; assay type: functional
Escherichia coli [5] = experiment: Antimicrobial activity against Escherichia coli DH5alpha expressing SHV-84; assay type: functional
Escherichia coli [6] = experiment: Antimicrobial activity against Escherichia coli INSRA4590 expressing SHV-84; assay type: functional
Escherichia coli [7] = experiment: Antimicrobial activity against Escherichia coli DH5alpha in presence of 2 ug/ml clavulanic acid beta-lactamase inhibitor; assay type: functional
Escherichia coli [8] = experiment: Antimicrobial activity against Escherichia coli DH5alpha expressing SHV-1 in presence of 2 ug/ml clavulanic acid beta-lactamase inhibitor; assay type: functional
Escherichia coli [9] = experiment: Antimicrobial activity against Escherichia coli DH5alpha expressing SHV-84 in presence of 2 ug/ml clavulanic acid beta-lactamase inhibitor; assay type: functional
Escherichia coli [10] = experiment: Antimicrobial activity against Escherichia coli INSRA4590 expressing SHV-84 in presence of 2 ug/ml clavulanic acid beta-lactamase inhibitor; assay type: functional
Escherichia coli [11] = experiment: Antimicrobial activity against Escherichia coli DH5alpha in presence of 4 ug/ml Tazobactam beta-lactamase inhibitor; assay type: functional
Escherichia coli [12] = experiment: Antimicrobial activity against Escherichia coli DH5alpha expressing SHV-1 in presence of 4 ug/ml Tazobactam beta-lactamase inhibitor; assay type: functional
Escherichia coli [13] = experiment: Antimicrobial activity against Escherichia coli DH5alpha expressing SHV-84 in presence of 4 ug/ml Tazobactam beta-lactamase inhibitor; assay type: functional
Escherichia coli [14] = experiment: Antimicrobial activity against Escherichia coli INSRA4590 expressing SHV-84 in presence of 4 ug/ml Tazobactam beta-lactamase inhibitor; assay type: functional
[15] = substrate: CC(=O)OCC1=C(C(=O)O)N2C(=O)[C@@H](NC(=O)Cc3cccs3)[C@H]2SC1; experiment: (§1) Activity at Escherichia coli beta-lactamase SHV-1
[16] = substrate: CC(C)(O/N=C(\C(=O)N[C@@H]1C(=O)N2C(C(=O)[O-])=C(C[n+]3ccccc3)CS[C@H]12)c1csc(N)n1)C(=O)O; experiment: as §1
[17] = substrate: CC1(C)S[C@@H]2[C@H](NC(=O)Cc3ccccc3)C(=O)N2[C@H]1C(=O)O; experiment: as §1
[18] = substrate: CC1(C)S[C@@H]2[C@H](NC(=O)[C@H](C(=O)O)c3ccsc3)C(=O)N2[C@H]1C(=O)O; experiment: as §1
[19] = substrate: CC1(C)S[C@@H]2[C@H](NC(=O)[C@H](N)c3ccc(O)cc3)C(=O)N2[C@H]1C(=O)O; experiment: as §1
[20] = substrate: CCN1CCN(C(=O)N[C@@H](C(=O)N[C@@H]2C(=O)N3[C@@H]2SC(C)(C)[C@@H]3C(=O)O)c2ccccc2)C(=O)C1=O; experiment: as §1
[21] = substrate: CO/N=C(\C(=O)N[C@@H]1C(=O)N2C(C(=O)O)=C(COC(C)=O)CS[C@H]12)c1csc(N)n1; experiment: as §1
[22] = substrate: CC1(C)S[C@@H]2[C@H](NC(=O)Cc3ccccc3)C(=O)N2[C@H]1C(=O)O; experiment: (§2) Ratio of Kcat to Km in Escherichia coli beta-lactamase SHV-1
[23] = substrate: CC1(C)S[C@@H]2[C@H](NC(=O)[C@H](C(=O)O)c3ccsc3)C(=O)N2[C@H]1C(=O)O; experiment: as §2
[24] = substrate: CC1(C)S[C@@H]2[C@H](NC(=O)[C@H](N)c3ccc(O)cc3)C(=O)N2[C@H]1C(=O)O; experiment: as §2
[25] = substrate: CCN1CCN(C(=O)N[C@@H](C(=O)N[C@@H]2C(=O)N3[C@@H]2SC(C)(C)[C@@H]3C(=O)O)c2ccccc2)C(=O)C1=O; experiment: as §2

Molecule | Km (Escherichia coli [1]) [µM] | kcat (Escherichia coli [1]) [s⁻¹] | kcat/Km (Escherichia coli [2]) [M⁻¹ s⁻¹] | MIC (Escherichia coli [3]) [µg/mL] | MIC (Escherichia coli [4]) [µg/mL] | MIC (Escherichia coli [5]) [µg/mL] | MIC (Escherichia coli [6]) [µg/mL] | further results
CC1(C)S[C@@H]2[C@H](NC(=O)Cc3ccccc3)C(=O)N2[C@H]1C(=O)O | 64 | 611 | 9.5e+06 | – | – | – | – | –
CC1(C)S[C@@H]2[C@H](NC(=O)[C@H](N)c3ccc(O)cc3)C(=O)N2[C@H]1C(=O)O [AMOXICILLIN] | 101 | 1040 | 1.04e+07 | ≤ 2 | 2050 (≈ 5600 µM) | 2050 (≈ 5600 µM) | 512 (≈ 1400 µM) | MIC (Escherichia coli [7]): ≤ 2 µg/mL; MIC (Escherichia coli [8]): 8 µg/mL; MIC (Escherichia coli [9]): > 64 µg/mL; MIC (Escherichia coli [10]): 64 µg/mL
C[C@H]1[C@H](NC(=O)/C(=N\OC(C)(C)C(=O)O)c2csc(N)n2)C(=O)N1S(=O)(=O)O [AZTREONAM] | – | – | – | – | – | 0.03 (≈ 0.0689 µM) | 0.03 (≈ 0.0689 µM) | –
CO/N=C(\C(=O)N[C@@H]1C(=O)N2C(C(=O)O)=C(COC(C)=O)CS[C@H]12)c1csc(N)n1 [CEFOTAXIME] | – | < 0.1 | – | ≤ 0.015 | 0.06 (≈ 0.132 µM) | 0.06 (≈ 0.132 µM) | 0.125 (≈ 0.274 µM) | –
CC(C)(O/N=C(\C(=O)N[C@@H]1C(=O)N2C(C(=O)[O-])=C(C[n+]3ccccc3)CS[C@H]12)c1csc(N)n1)C(=O)O [CEFTAZIDIME] | – | < 0.1 | – | 0.06 (≈ 0.11 µM) | 0.5 (≈ 0.915 µM) | 0.25 (≈ 0.457 µM) | 0.25 (≈ 0.457 µM) | –
CC(=O)OCC1=C(C(=O)O)N2C(=O)[C@@H](NC(=O)Cc3cccs3)[C@H]2SC1 [CEPHALOTHIN] | 169 | 4 | 20000 | 1 (≈ 2.52 µM) | 16 (≈ 40.4 µM) | 8 (≈ 20.2 µM) | 8 (≈ 20.2 µM) | –
CCN1CCN(C(=O)N[C@@H](C(=O)N[C@@H]2C(=O)N3[C@@H]2SC(C)(C)[C@@H]3C(=O)O)c2ccccc2)C(=O)C1=O [PIPERACILLIN] | 68 | 406 | 6e+06 | 1 (≈ 1.93 µM) | 64 (≈ 124 µM) | 128 (≈ 247 µM) | 64 (≈ 124 µM) | MIC (Escherichia coli [11]): 1 µg/mL; MIC (Escherichia coli [12]): 2 µg/mL; MIC (Escherichia coli [13]): 2 µg/mL; MIC (Escherichia coli [14]): 4 µg/mL
CC1(C)S[C@@H]2[C@H](NC(=O)[C@H](C(=O)O)c3ccsc3)C(=O)N2[C@H]1C(=O)O [TICARCILLIN] | 83 | 216 | 2.5e+06 | ≤ 2 | 1020 (≈ 2660 µM) | > 4100 | > 4100 | –
Beta-lactamase SHV-1 (Escherichia coli), P0AD63 (protein) MRYIRLCIISLLATLPLAVHASPQPLEQIKLSESQLSGRVGMIEMDLASGRTLTAWRADERFPMMSTFKVVLCGAVLARVDAGDEQLERKIHYRQQDLVDYSPVSEKHLADGMTVGELCAAAITMSDNSAANLLLATVGGPAGLTAFLRQIGDNVTRLDRWETELNEALPGDARDTTTPASMAATLRKLLTSQRLSARSQRQLLQWMVDDRVAGPLIRSVLPAGWFIADKTGAGERGARGIVALLGPNNKAERIVVIYLRDTPASMAERNQQIAGIGAALIEHWQR | – | – | – | – | – | – | – | Km [15]: 40 µM; kcat [15]: 128 s⁻¹; kcat [16]: < 0.1 s⁻¹; Km [17]: 23 µM; kcat [17]: 1940 s⁻¹; Km [18]: 11 µM; kcat [18]: 220 s⁻¹; Km [19]: 31 µM; Km [20]: 24 µM; kcat [20]: 1490 s⁻¹; kcat [21]: < 0.1 s⁻¹; kcat/Km [22]: 8.42e+07 M⁻¹ s⁻¹; kcat/Km [23]: 2e+07 M⁻¹ s⁻¹; kcat/Km [24]: 3.37e+07 M⁻¹ s⁻¹; kcat/Km [25]: 6.21e+07 M⁻¹ s⁻¹

From ChEMBL document CHEMBL1255455, “Biochemical study of a new inhibitor-resistant beta-lactamase, SHV-84, produced by a clinical Escherichia coli strain” (2010)
